Results reported in US20060154323A1, “Method for obtaining dynamic and structural data pertaining to proteins and protein/ligand complexes” (ProSpect Pharma, priority 2002, published 2006).

What was measured:
[1] = molecular target: T1, MUP (Mus musculus, UniProt P11588); experiment: Binding of small hydrophobic ligands to MUP (Kd)
T1 construct: made in house; host or cells: E. coli M15 cells with vector pqe30 MUP
T1 sequence (P11588 19-180): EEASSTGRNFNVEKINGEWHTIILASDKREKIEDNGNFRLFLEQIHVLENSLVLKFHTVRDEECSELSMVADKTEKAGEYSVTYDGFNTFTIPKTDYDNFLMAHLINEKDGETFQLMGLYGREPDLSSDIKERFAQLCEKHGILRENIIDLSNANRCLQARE

[2] = molecular target: T2, Mouse Urinary Protein (Mus musculus, UniProt P11588); experiment: 13C NMR relaxation (T1, T2) of valine 13CHD2-labeled MUP in absence and presence of ligand; conditions: for T1, Change / T2, Change: Protein vs Bound Protein; for T1, Bound Protein / T2, Bound Protein: 298 K;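 as to T1, Bound Protein: unit milliseconds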;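 as to T2, Bound Protein: unit milliseconds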
T2 construct: made in house; host or cells: E. coli M15 cells with vector pqe30 MUP
T2 sequence (P11588 19-180): T1 sequence (P11588 19-180)
Protocol: A 15 mg sample of L-valine-α-D-^12CD(^13CHD2)2 labeled MUP was dissolved in 650 μL phosphate buffered saline (10 mM potassium phosphate; 200 mM sodium chloride), to which was added 50 μL deuterium oxide. ^13C Relaxation rates (R2 and R1) of ^13CHD2 groups were determined using pulse sequences as described in Ishima et al., J. Am. Chem. Soc. 121:11589-11590 (1999). Spectral parameters were as follows: spectral width in the ^13C dimension, 900 Hz; spectral width in the ^1H dimension, 5200 Hz; number of real data points in the ^13C dimension, 128; number of real points in the ^1H dimension, 1408; number of transients per t1 increment, 8; probe temperature, 298 K. Prior to two-dimensional Fourier transformation, free induction decays were apodized with cosine-bell windowing functions according to known methods.
The NMR analysis was then repeated following addition of the small molecule ligand 1 μL of isobutyl pyrazine or 1 μL of isopropyl pyrazine to separate solutions of MUP. The data shown below in Tables I and II and in FIG. 8 were obtained, clearly showing the changes in T1 and T2 values obtained on addition of these small molecule ligands.

[3] = molecular target: T3, Major Urinary Protein (Mus musculus, UniProt P11588); experiment: S2axis order parameters of valine methyl groups from 600 MHz 13C R1/R2 relaxation of valine-enriched MUP and its complexes; conditions: for S^2axis: MUP-ligand complex, 600 MHz, 30° C., pH 7.0
T3 construct: made in house; host or cells: E. coli M15 cells with vector pqe30 MUP
T3 sequence (P11588 19-180): T1 sequence (P11588 19-180)
Protocol: Samples of [^13C^γ1,^γ2HD2]-U-^2H valine enriched MUP both alone and complexed with 2-methoxy-3-isopropylpyrazine and 2-methoxy-3-isobutylpyrazine were prepared from a single sample at pH 7.0 and a protein concentration of 1 mM. A further sample of methyl-^13C, ^2H enriched MUP was prepared at pH 7.0 and a protein concentration of 0.5 mM. Longitudinal (R1) and transverse (R2) ^13C relaxation rates were determined essentially as described by Ishima et al., J. Am. Chem. Soc. 121:11589-11590, 1999. All spectra were recorded at a proton frequency of 600 MHz and a probe temperature of 30° C. R1 rates were determined with relaxation delay times of 16, 64, 128, 240, 400, 720, 1120, 1600, 2240 and 2880 milliseconds. R2 rates were determined with relaxation delay times of 16, 32, 48, 64, 96, 160, 192, 240 and 288 milliseconds, and an effective field strength of 2 kHz. Relaxation data were fit to a single exponential decay function I=I0exp(−tR), where I0 is the initial resonance intensity, t is the relaxation delay time and R is the relaxation rate (R1 or R2). Relaxation data were fitted to the Lipari-Szabo model-free spectral density of the form: J(ω)=S^2τm/(1+ω^2τ^2m)+(1−S^2)τi/(1+ω^2τi^2), where τi^−1=τM^−1+τe^−1, τM is the overall molecular tumbling correlation time and τe is the effective internal correlation time. See Lipari and Szabo, J. Am. Chem. Soc. 104:4546-4559, 1982. This equation is valid for fast internal motions, τe<<τM, under which conditions the order parameter for methyl CH dipolar relaxation is given by S^2=Saxis^2[P2(cos θH]^2. Saxis^2 is the order parameter of the methyl rotation axis and θH is the angle made by the axis and the CH bond vector. A global rotational correlation time of […] was used for these calculations, according to the previously reported value. Zidek et al., Nature Str. Biol. 6:1118-1121, 1999. Although the valine residues were perdeuterated at non-methyl positions, the protein was otherwise protonated, and dipolar relaxation due to these “external” protons is not negligible for ^13C relaxation. Thus, by analogy with the work of Ishima et al. J. Am. Chem. Soc. 123:6164-6171, 2001, the contribution of these external protons to ^13C R2 values was estimated at 25% from the X-ray coordinates of MUP. Consequently, measured ^13C R^2 rates were multiplied by 0.75 to account for these external dipolar relaxation processes.

[4] = molecular target: T1, MUP; experiment: 13C-1H HSQC spectra of valine-enriched MUP complexes; conditions: 13C-1H HSQC of complexes with valine-enriched MUP
[5] = valine methyl 59.HG1 (first line)
[6] = valine methyl 59.HG1 (second line)

SMILES: COc1nccnc1CC(C)C [2-methoxy-3-isobutylpyrazine]
- Kd [1]: 80 nM
- T1, Change ([2]; 12.HG1): 35.219 milliseconds
- T2, Change ([2]; 12.HG1): −13.500 milliseconds
- T2, Change ([2]; 12.HG2): −16.796 milliseconds
- T1, Change ([2]; 47.HG1): 9.550 milliseconds
- T2, Change ([2]; 47.HG1): −16.055 milliseconds
- T1, Change ([2]; 47.HG2): −82.069 milliseconds
- T2, Change ([2]; 47.HG2): −12.196 milliseconds
- T1, Change ([2]; 53.HG1): −98.976 milliseconds
- T2, Change ([2]; 53.HG1): −10.901 milliseconds
- T1, Change ([2]; 53.HG2): 17.840 milliseconds
- T2, Change ([2]; 53.HG2): −13.096 milliseconds
- T1, Change ([2]; 59.HG1 (first line)): −84.312 milliseconds
- T2, Change ([2]; 59.HG1 (first line)): −22.344 milliseconds
- T1, Change ([2]; 59.HG1 (second line)): 20.312 milliseconds
- T2, Change ([2]; 59.HG1 (second line)): −3.040 milliseconds
- T1, Change ([2]; 70.HG1): 379.619 milliseconds
- T2, Change ([2]; 70.HG1): −65.766 milliseconds
- T1, Change ([2]; 70.HG2): −324.602 milliseconds
- T2, Change ([2]; 70.HG2): 33.869 milliseconds
- T1, Change ([2]; 82.HG1): 1.260 milliseconds
- T2, Change ([2]; 82.HG1): 7.645 milliseconds
- T1, Change ([2]; 82.HG2): −33.349 milliseconds
- T2, Change ([2]; 82.HG2): 22.399 milliseconds
- contribution of valine side-chains to the entropy of binding ([2]; from relaxation data in the presence of ligand): do not contribute significantly
- T1, Bound Protein ([2]; valine methyl 12.HG1): 1760.141 milliseconds
- T2, Bound Protein ([2]; valine methyl 12.HG1): 166.608 milliseconds
- T2, Bound Protein ([2]; valine methyl 12.HG2): 200.110 milliseconds
- T1, Bound Protein ([2]; valine methyl 47.HG1): 1619.169 milliseconds
- T2, Bound Protein ([2]; valine methyl 47.HG1): 171.287 milliseconds
- T1, Bound Protein ([2]; valine methyl 47.HG2): 1072.690 milliseconds
- T2, Bound Protein ([2]; valine methyl 47.HG2): 162.950 milliseconds
- T1, Bound Protein ([2]; valine methyl 53.HG1): 2332.247 milliseconds
- T2, Bound Protein ([2]; valine methyl 53.HG1): 174.600 milliseconds
- T1, Bound Protein ([2]; valine methyl 53.HG2): 1382.566 milliseconds
- T2, Bound Protein ([2]; valine methyl 53.HG2): 163.379 milliseconds
- T1, Bound Protein [2, 5]: 1367.075 milliseconds
- T2, Bound Protein [2, 5]: 200.992 milliseconds
- T1, Bound Protein [2, 6]: 1502.825 milliseconds
- T2, Bound Protein [2, 6]: 150.756 milliseconds
- T1, Bound Protein ([2]; valine methyl 70.HG1): 1701.953 milliseconds
- T2, Bound Protein ([2]; valine methyl 70.HG1): 186.968 milliseconds
- T1, Bound Protein ([2]; valine methyl 70.HG2): 1488.130 milliseconds
- T2, Bound Protein ([2]; valine methyl 70.HG2): 128.164 milliseconds
- T1, Bound Protein ([2]; valine methyl 82.HG1): 913.641 milliseconds
- T2, Bound Protein ([2]; valine methyl 82.HG1): 216.738 milliseconds
- T1, Bound Protein ([2]; valine methyl 82.HG2): 703.150 milliseconds
- T2, Bound Protein ([2]; valine methyl 82.HG2): 201.054 milliseconds
- changes in Saxis^2 of the six valine residues in MUP upon binding [3]: only minor changes
- S^2axis ([3]; Val-12 C^γ1): 0.86
- S^2axis ([3]; Val-12 C^γ2): 0.66
- S^2axis ([3]; Val-47 C^γ1): 0.86
- S^2axis ([3]; Val-47 C^γ2): 0.88
- S^2axis ([3]; Val-53 C^γ1): 0.78
- S^2axis ([3]; Val-53 C^γ2): 0.86
- S^2axis ([3]; Val-59 C^γ1): 0.63
- S^2axis ([3]; Val-59 C^γ2): 0.90
- S^2axis ([3]; Val-70 C^γ1): 0.81
- S^2axis ([3]; Val-70 C^γ2): [1.03]
- S^2axis ([3]; Val-82 C^γ1): 0.53
- S^2axis ([3]; Val-82 C^γ2): 0.53
- contribution of valine side-chains to the entropy of binding ([3]; from computations of Saxis^2 values, free protein and complexes): do not contribute significantly
- shift perturbations of Val 82 γ1 and γ2 correlations [4]: Significant shift perturbations
